Results on six molecules are retold here after US20240197596A1, “COMPOUNDS USEFUL AS HAIR DYES” (National University of Singapore, priority 2021, published 2024).

One data set deals with IL-1α. The data set is described as follows: IL-1α release assay (ELISA) in THP-1 cells. The class given is cell-based, human. Particulars: 24 h; for release of IL-1α: CV75 dose. Here is the method: (§1) CV75 values (concentration showing 75% of THP-1 cell survival) were determined as per the procedure described above in section A of this method. The IL-8 and IL-1α release assay was performed as described in Toxicol In Vitro. 2003, 17(3), 311-321. A Chemokine immunosorbent assay Bio-legend ELISA Max kit was used to quantify the levels of available IL-8 and IL-1α protein. The supernatant media of untreated THP-1 cells was treated with standards, test samples N1-N13 and DMSO in 96 well plate and then was recovered after 24 h of culture. IL-8 and IL-1α was measured by ELISA in 96-well microtiter plates according to the manufacturer protocol (Biolegend, ELISA MAX™, Singapore).

In a further data set the test system is THP-1 cells. Put plainly: h-CLAT assay on THP-1 cells: markers against OECD cut-off, prediction, cell viability. In kind it is cell-based, human. Particulars: for CD54 and CD86 marker expression against OECD cut-off: 8 doses based on CV75, 24 h. In outline:
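THP-1 cells (1×10^6/mL) exposed 24 h to 8 doses spaced 1.2-fold around CV75; DNCB and SLS as controls. CD86/CD54 geometric MFI by flow cytometry with PI viability, expressed as % RFI (not calculated below 50% viability). Sensitizer if CD86 >150% or CD54 >200% RFI in two of three runs.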

A further data set is described as follows: Hair nuance test. Set-up: key to L* / a* / b*: CIELAB L*, a*, b* coordinates; key to ΔE (total colour difference to natural hair): ΔE = √((L*−L0)²+(a*−a0)²+(b*−b0)²) vs untreated hair. The following applies: for eventual colour of bleached hair, Type B: Type B (Oxidative, H2O2) formulation; for eventual colour of bleached hair, Type C: Type C (Oxidative with coupler resorcinol) formulation; for eventual colour of bleached hair, Type A: Type A (Non-oxidative) formulation. Here is the method:
35 g of bleaching powder was mixed with 50 mL of developer then applied onto undyed black hair (wrapped in aluminium foil to enhance the bleaching process) and left on for 45 min. The hair was then rinsed with deionized water and shampoo and left to dry. This process was repeated twice.
Hair dye formulations were prepared from N1-N13 according to methods reported (New Journal of Chemistry. 2019; 43(41):16188-99), and with the compositions stated in Table 11 Bleached hair samples were immersed into the respective formulations for 20 min, then air dried for 20 min. Then they were shampooed twice and treated with conditioner for 5 min.
SkinColorCatch (Delfin Technologies Ltd, Kuopio, Finland) was used to measure CIELAB tristimulus L*, a* and b* values of the dyed hair samples and baseline L0, a0, b0 values from untreated hair. The difference in colour tone (ΔH) and the total colour difference (ΔE) were then derived from the values obtained with the equations below:
ΔH=√{square root over ((a*−a0)^2+(b*−b0)^2)}
ΔE=√{square root over ((L*−L0)^2+(a*−a0)^2+(b*−b0)^2)}

The test system of the next data set is IL-8. Put plainly: IL-8 release assay (ELISA) in THP-1 cells. The class given is cell-based, human. The following applies: CV75 dose, 24 h. The method, then: as §1
The mark [1] stands for this setting: Type C (Oxidative with coupler resorcinol).

“Also recorded” adds a separate entry of the source.

With `Nc1ccc(N)c(OCC2CO2)c1` (centres unmarked) [Compound N4, 2-(oxiran-2-ylmethoxy)benzene-1,4-diamine], in the data set on IL-1α, the “IL-1α release, times lower than PPD” value is listed as 7-8 and the “release of IL-1α” value was “slight release”. Further, the “CD54 and CD86 marker expression against OECD cut-off” value (“CD54 and CD86 marker expression” below) in the data set with THP-1 cells is “did not express the markers at any tested dose level”. For the same molecule, in the data set “Hair nuance test” (Type A (Non-oxidative)), the “L*” value was 49, the “a*” value is 5, the “b*” value came to 29 and the “ΔE (total colour difference to natural hair)” value came to 49.1. Moreover, the “ΔH (difference in colour tone)” value in the data set “Hair nuance test” (Type A (Non-oxidative)) is listed as 28.4. In the data set “Hair nuance test” (Type B (Oxidative)), the “L*” value was found to be 40, the “a*” value is reported as 6, the “b*” value is reported as 16 and the “ΔE (total colour difference to natural hair)” value worked out at 35.0. For the same molecule, in the data set “Hair nuance test” (Type B (Oxidative)), the “ΔH (difference in colour tone)” value stood at 16.2. In the data set “Hair nuance test”, the “eventual colour of bleached hair, Type B” value is given as “Coffee brown” and the “eventual colour of bleached hair, Type C” value was “vibrant blue colours; also recorded: Admiral blue”. In addition, in the data set “Hair nuance test” (setting [1]), the “L*” value turned out to be 22, the “a*” value is on record as 1, the “b*” value was −13 and the “ΔE (total colour difference to natural hair)” value turned out to be 19.1. The “ΔH (difference in colour tone)” value in the data set “Hair nuance test” (setting [1]) is given as 14.0.

As to `COCCOCCOc1cc(N)ccc1N` [Compound N5, 2-[2-(2-methoxyethoxy)ethoxy]benzene-1,4-diamine], the “release of IL-1α” value with IL-1α is on record as “slight elevation; also recorded: marginal release”. Moreover, the “release of IL-8” value in the data set with IL-8 was “slight elevation; also recorded: marginal release”. For the same molecule, the “CD54 and CD86 marker expression” value in the data set with THP-1 cells is “failed to induce marker expression above the recommended % RFI cut-off”. Besides, in “Hair nuance test” (Type A (Non-oxidative)), the “L*” value was 18, the “a*” value was 4, the “b*” value was −1 and the “ΔE (total colour difference to natural hair)” value is 10.0. Also, in the data set “Hair nuance test” (Type A (Non-oxidative)), the “ΔH (difference in colour tone)” value came to 4.5. Further, in “Hair nuance test”, the “eventual colour of bleached hair, Type A” value is reported as “dark brown colour shade; also recorded: Dark cinnamon brown”; the “eventual colour of bleached hair, Type B” value was “Almond brown”; the “eventual colour of bleached hair, Type C” value is reported as “vibrant blue colours; also recorded: Indigo”. In addition, in “Hair nuance test” (Type B (Oxidative)), the “L*” value turned out to be 26, the “a*” value was found to be 3.7, the “b*” value came out at 10.3 and the “ΔE (total colour difference to natural hair)” value is listed as 19.7. Also, in the data set “Hair nuance test” (Type B (Oxidative)), the “ΔH (difference in colour tone)” value is recorded as 10.0. Moreover, in the data set “Hair nuance test” (setting [1]), the “L*” value is given as 16, the “a*” value is recorded as 0, the “b*” value is reported as −6.7 and the “ΔE (total colour difference to natural hair)” value was 10.4. For the same molecule, the “ΔH (difference in colour tone)” value in “Hair nuance test” (setting [1]) stood at 7.7.

Regarding `N#CCOc1cc(N)ccc1N` [Compound N6, 2-(2,5-diaminophenoxy)acetonitrile], the “release of IL-1α” value in the data set on IL-1α is on record as “did not release significant amounts”. The “release of IL-8” value in the data set with IL-8 is recorded as “did not release significant amounts”. In addition, the “marker induction, times lower than DNCB” value in the data set on THP-1 cells (human, 24 h) was 3. In “Hair nuance test” (Type A (Non-oxidative)), the “L*” value came to 55.0, the “a*” value is on record as 10.0, the “b*” value came out at 19.0 and the “ΔE (total colour difference to natural hair)” value is 50.3. Moreover, the “ΔH (difference in colour tone)” value in “Hair nuance test” (Type A (Non-oxidative)) turned out to be 20.5. In addition, in “Hair nuance test”, the “eventual colour of bleached hair, Type A” value was “light colours; also recorded: Rose pink”; the “eventual colour of bleached hair, Type B” value is listed as “Dark brown”; the “eventual colour of bleached hair, Type C” value was “Brownish black”. Besides, in the data set “Hair nuance test” (Type B (Oxidative)), the “L*” value is given as 15, the “a*” value is 4, the “b*” value is reported as 5 and the “ΔE (total colour difference to natural hair)” value was found to be 8.2. Further, the “ΔH (difference in colour tone)” value in the data set “Hair nuance test” (Type B (Oxidative)) amounted to 5.6. Besides, in “Hair nuance test” (setting [1]), the “L*” value was found to be 13, the “a*” value was found to be 5, the “b*” value is listed as 4 and the “ΔE (total colour difference to natural hair)” value is listed as 7.1. Further, the “ΔH (difference in colour tone)” value in the data set “Hair nuance test” (setting [1]) is 5.8.

In the case of `COCCOc1cc(N)ccc1N` [Compound N7, 2-(2-methoxyethoxy)benzene-1,4-diamine], the “release of IL-1α” value in the data set with IL-1α was “slight elevation; also recorded: marginal release”. Also, the “release of IL-8” value with IL-8 is reported as “slight elevation; also recorded: marginal release”. Also, the “CD54 and CD86 marker expression” value in the data set with THP-1 cells is given as “failed to induce marker expression above the recommended % RFI cut-off”. Besides, in “Hair nuance test” (Type A (Non-oxidative)), the “L*” value was determined as 22, the “a*” value turned out to be 2.7, the “b*” value came to 4.7 and the “ΔE (total colour difference to natural hair)” value was 13.8. The “ΔH (difference in colour tone)” value in “Hair nuance test” (Type A (Non-oxidative)) came out at 4.6. Besides, in the data set “Hair nuance test”, the “eventual colour of bleached hair, Type A” value is “dark brown colour shade; also recorded: Dark hazelnut”; the “eventual colour of bleached hair, Type B” value was “Walnut brown”; the “eventual colour of bleached hair, Type C” value is “vibrant blue colours; also recorded: Navy blue”. Moreover, in the data set “Hair nuance test” (Type B (Oxidative)), the “L*” value was determined as 19, the “a*” value is reported as 4.7, the “b*” value is recorded as 3 and the “ΔE (total colour difference to natural hair)” value is reported as 11.2. In addition, the “ΔH (difference in colour tone)” value in the data set “Hair nuance test” (Type B (Oxidative)) is listed as 5.1. Besides, in the data set “Hair nuance test” (setting [1]), the “L*” value worked out at 12.3, the “a*” value is listed as −0.7, the “b*” value is on record as −4 and the “ΔE (total colour difference to natural hair)” value turned out to be 6.0. Moreover, the “ΔH (difference in colour tone)” value in the data set “Hair nuance test” (setting [1]) was found to be 5.0.

As for `C=C(C)Oc1cc(N)ccc1N` [Compound N12, 2-(prop-1-en-2-yloxy)benzene-1,4-diamine], the “release of IL-1α” value with IL-1α was “slight elevation; also recorded: marginal release”. Moreover, the “release of IL-8” value with IL-8 is on record as “slight elevation; also recorded: marginal release”. Also, in the data set with THP-1 cells, the “CD54 and CD86 marker expression” value is “failed to induce marker expression above the recommended % RFI cut-off”. In “Hair nuance test” (Type A (Non-oxidative)), the “L*” value was determined as 17, the “a*” value worked out at 9, the “b*” value was determined as 4 and the “ΔE (total colour difference to natural hair)” value worked out at 12.4. In addition, the “ΔH (difference in colour tone)” value in the data set “Hair nuance test” (Type A (Non-oxidative)) amounted to 3.52. In the data set “Hair nuance test” (Type B (Oxidative)), the “L*” value was 28, the “a*” value came to 18, the “b*” value is given as 12 and the “ΔE (total colour difference to natural hair)” value was found to be 28.39. Moreover, the “ΔH (difference in colour tone)” value in the data set “Hair nuance test” (Type B (Oxidative)) amounted to 5.32. In addition, in “Hair nuance test”, the “eventual colour of bleached hair, Type B” value is given as “brown colour” and the “eventual colour of bleached hair, Type C” value was “distinct purple colour”. In the data set “Hair nuance test” (setting [1]), the “L*” value is listed as 11, the “a*” value is 0, the “b*” value is −3 and the “ΔE (total colour difference to natural hair)” value is reported as 4.47. Further, the “ΔH (difference in colour tone)” value in “Hair nuance test” (setting [1]) worked out at 2.11.

As for `CNCCOc1cc(N)ccc1N` [Compound N13, 2-(2-(methylamino)ethoxy)benzene-1,4-diamine], the “release of IL-1α” value in the data set with IL-1α was “slight elevation; also recorded: marginal release”. In the data set with IL-8, the “release of IL-8” value is on record as “slight elevation; also recorded: marginal release”. In the data set “Hair nuance test” (Type A (Non-oxidative)), the “L*” value is 24, the “a*” value was 8, the “b*” value was 8 and the “ΔE (total colour difference to natural hair)” value amounted to 18.38. Besides, the “ΔH (difference in colour tone)” value in “Hair nuance test” (Type A (Non-oxidative)) is 4.28. Besides, in the data set “Hair nuance test” (Type B (Oxidative)), the “L*” value is reported as 36, the “a*” value amounted to 11, the “b*” value was 18 and the “ΔE (total colour difference to natural hair)” value was found to be 33.74. Besides, the “ΔH (difference in colour tone)” value in “Hair nuance test” (Type B (Oxidative)) is listed as 5.8. Besides, in “Hair nuance test”, the “eventual colour of bleached hair, Type B” value was “Grey” and the “eventual colour of bleached hair, Type C” value is reported as “Brown”. Also, in “Hair nuance test” (setting [1]), the “L*” value worked out at 25, the “a*” value was found to be 14, the “b*” value is listed as 11 and the “ΔE (total colour difference to natural hair)” value came out at 23.49. Further, in “Hair nuance test” (setting [1]), the “ΔH (difference in colour tone)” value turned out to be 4.84.
